Experimental data: patent US20260226493A1, “HERBICIDE RESISTANT PLANTS” (SYNGENTA CROP PROTECTION AG, priority 2023, published 2026)

How the values were obtained:
[1] = biological target: T1, Arabidopsis thaliana BIO3-BIO1 (BioDA) mutants (Arabidopsis thaliana, UniProt B0F481, Q506A); test: BIO3-BIO1 mutant enzyme activity in the presence of herbicide, percentage inhibition (fluorometric DAPA assay); assay type: biochemical; conditions: read-out: percentage inhibition
T1 construct: with the predicted N-terminal mitochondrial transit peptide removed; 6xHis-tag (N); thrombin cleavage site (N); made in house; host or cells: E. coli BL21 (DE3) bioA
Outline: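 His-tagged Arabidopsis BIO3-BIO1 mutants, expressed in E. coli and purified by IMAC and SEC, were preincubated at 50 nM with herbicide for 10 min at 20 °C in EPPS pH 8.6 with pyridoxal phosphate. Reaction with 100 μM spermidine and 20 μM KAPA ran 75 min at 20 °C; DAPA was derivatised with o-phthalaldehyde and read at ex 410/em 470 nm. […].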

[2] = biological target: T2, Arabidopsis thaliana BioDA variant enzymes (Arabidopsis thaliana, UniProt B0F481, C388D); test: biochemical
T2 construct: with the predicted N-terminal mitochondrial transit peptide removed; 6xHis-tag (N); thrombin cleavage site (N); made in house; host or cells: E. coli BL21 (DE3) bioA
Protocol: (§1) These plasmids were then expressed in E. coli BL21 (DE3) bioA with 50 μg/mL kanamycin and 25 μg/mL chloramphenicol selection. Overnight cultures grown at 37° C. were used to inoculate 8×500 mL AIM in shake flasks at a ratio of 1:100. Cultures were grown at 37° C., 200 rpm for 3.5 hours and then overnight at 20° C. Cells were harvested by centrifugation for 30 minutes at 10 000 g. Cells were stored at −80° C. until extraction. 30 g of cell pellet from was thawed in 120 mL of IMAC buffer A (20 mM HEPES pH7.5, 25 mM imidazole, 500 mM sodium chloride, 0.15 mM pyridoxal phosphate, 0.5 mM TCEP, 1× complete Protease Inhibitor Tablet (Roche)). The resuspension was passed through a cell disrupter at 18 000 PSI and centrifuged at 50 000 g for 25 minutes at 4° C. The His-tagged BIO3-BIO1 protein was purified from the extract supernatant on an AKTA avant chromatography system (Cytiva) using a HisTrap FF column and eluted in IMAC buffer B ((20 mM HEPES pH7.5, 500 mM imidazole, 500 mM sodium chloride, 0.15 mM pyridoxal phosphate, 0.5 mM TCEP) followed by SEC using a HiLoad 26/60 Superdex200 column in SEC buffer (25 mM HEPES pH7.5, 150 mM sodium chloride, 0.15 mM pyridoxal phosphate, 0.5 mM TCEP). Protein concentration was measured and calculated using the absorbance at 280 nm. Extracts were diluted 1 in 4 and 10 uL was analysed by SDS PAGE.
(§2) To measure BIO3-BIO1 mutant enzyme activity in the presence of herbicide, herbicides were incubated with 20 μL of enzyme mix (100 mM EPPS pH 8.6, 0.1 mM pyridoxal phosphate, 0.1 mg/mL BSA, 50 nM BIO3-BIO1 enzyme) for 10 minutes at 20° C. in a well of a 96-well half-area black plate, followed by the addition of 20 μL of substrate mix (final concentration of 100 mM EPPS pH 8.6, 0.1 mM pyridoxal phosphate, 0.1 mg/mL BSA, 100 μM spermidine, 20 μM KAPA, 100 mM NaCO3) and further incubation for 75 minutes at 20° C. The reaction was terminated by the addition of 50 μL of derivatisation mix (final concentration of 250 mM borate NaOH pH 9.4, 3.6 mM o-phthalaldehyde, 7 mM β-mercaptoethanol, 17% (v/v) ethanol, 3.6% (v/v) methanol). The fluorescent product produced by the reaction of DAPA with o-phthalaldehyde and 7 mM β-mercaptoethanol was measured at 470 nm after excitation at 410 nm.
(§3) For IC50 calculations, appropriate dose responses of compounds L, M, B, K and G were used. Calculated percentage inhibitions were then input into GraphPad Prism 7 and IC50s calculated using the non-linear regression (vs. normalised response) equation.

[3] = biological target: T3, Arabidopsis thaliana BioDA variant enzymes (Arabidopsis thaliana, UniProt B0F481); test: biochemical; conditions: WT Arabidopsis thaliana BioDA (SEQ ID NO 294); read-out: IC50
T3 construct: with the predicted N-terminal mitochondrial transit peptide removed; 6xHis-tag (N); thrombin cleavage site (N); made in house; host or cells: E. coli BL21 (DE3) bioA
Protocol: as §1, §2, §3

T2 sequence (B0F481 24-833 C388D): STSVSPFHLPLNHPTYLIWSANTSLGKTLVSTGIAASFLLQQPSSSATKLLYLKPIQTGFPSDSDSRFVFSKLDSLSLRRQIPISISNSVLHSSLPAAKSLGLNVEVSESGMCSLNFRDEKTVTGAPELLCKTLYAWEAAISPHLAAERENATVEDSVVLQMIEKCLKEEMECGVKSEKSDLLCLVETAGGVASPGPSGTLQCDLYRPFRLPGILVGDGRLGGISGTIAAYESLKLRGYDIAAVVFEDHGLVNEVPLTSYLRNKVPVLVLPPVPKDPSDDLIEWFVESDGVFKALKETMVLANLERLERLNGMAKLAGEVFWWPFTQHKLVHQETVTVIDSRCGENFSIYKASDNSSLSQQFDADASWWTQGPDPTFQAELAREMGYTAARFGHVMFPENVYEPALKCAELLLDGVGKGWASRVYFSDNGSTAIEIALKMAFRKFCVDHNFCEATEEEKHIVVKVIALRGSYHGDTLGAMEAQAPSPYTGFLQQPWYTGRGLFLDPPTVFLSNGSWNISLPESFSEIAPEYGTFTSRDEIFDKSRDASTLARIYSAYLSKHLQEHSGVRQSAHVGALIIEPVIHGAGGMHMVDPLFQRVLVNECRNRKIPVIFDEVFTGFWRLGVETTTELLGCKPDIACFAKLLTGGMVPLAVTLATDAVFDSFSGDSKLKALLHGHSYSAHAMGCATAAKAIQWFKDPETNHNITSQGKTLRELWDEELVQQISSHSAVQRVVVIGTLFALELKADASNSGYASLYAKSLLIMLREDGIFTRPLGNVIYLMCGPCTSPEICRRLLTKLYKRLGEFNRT
T1 sequence (B0F481 23-833 Q506A): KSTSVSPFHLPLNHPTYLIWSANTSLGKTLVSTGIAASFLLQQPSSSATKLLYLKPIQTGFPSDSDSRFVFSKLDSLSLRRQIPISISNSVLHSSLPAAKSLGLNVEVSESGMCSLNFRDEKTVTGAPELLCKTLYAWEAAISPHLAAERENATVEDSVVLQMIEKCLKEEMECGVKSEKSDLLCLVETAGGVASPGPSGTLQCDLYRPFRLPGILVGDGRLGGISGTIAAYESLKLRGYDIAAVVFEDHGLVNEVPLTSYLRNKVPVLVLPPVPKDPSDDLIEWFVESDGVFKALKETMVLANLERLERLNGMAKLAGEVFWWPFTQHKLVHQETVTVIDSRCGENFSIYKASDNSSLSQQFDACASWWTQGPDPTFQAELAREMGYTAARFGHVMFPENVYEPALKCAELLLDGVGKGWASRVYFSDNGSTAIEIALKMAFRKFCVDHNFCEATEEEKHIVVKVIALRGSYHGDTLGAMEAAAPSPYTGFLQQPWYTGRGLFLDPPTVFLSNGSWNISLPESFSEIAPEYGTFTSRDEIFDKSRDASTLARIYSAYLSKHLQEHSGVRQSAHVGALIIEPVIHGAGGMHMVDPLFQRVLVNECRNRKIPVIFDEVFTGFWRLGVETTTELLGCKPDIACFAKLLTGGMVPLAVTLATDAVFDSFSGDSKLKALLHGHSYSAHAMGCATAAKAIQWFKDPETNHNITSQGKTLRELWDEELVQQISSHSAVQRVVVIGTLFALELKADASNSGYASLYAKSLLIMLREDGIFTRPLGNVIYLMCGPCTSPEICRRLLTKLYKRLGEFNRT

Structure (SMILES)	inhibition at 1 µM [1]	IC50 [2]	IC50 [3]
CCOC(=O)c1nn(-c2ccc3c(c2)OC(F)(F)C(F)(F)O3)c2cccc(C(C)=O)c2c1=O [Compound A, ethyl 5-acetyl-4-oxo-1-(2,2,3,3-tetrafluoro-1,4-benzodioxin-6-yl)cinnoline-3-carboxylate]	0%	–	–
CC(O)C(N)CCCCC(=O)O.Cl (centres unmarked) [Compound B, [5-carboxy-1-(1-hydroxyethyl)pentyl]ammonium chloride]	–	29.2 µM	2.81 µM
CCn1c(Cn2ccc(C(F)(F)F)n2)cc(=O)c(C(=O)O)c1-c1ccc(Cl)c(Cl)c1 [Compound L, 2-(3,4-dichlorophenyl)-1-ethyl-4-oxo-6-[[3-(trifluoromethyl)pyrazol-1-yl]methyl]pyridine-3-carboxylic acid]	–	100 µM	0.145 µM
